# Read-outs that look alike come from different tables or passages of the source.
# Legend:
# [1] = molecular target: T1, S. typhimurium receptor LsrB (Salmonella typhimurium, UniProt Q8ZKQ1); test: X-ray crystal structure of the LsrB:ligand complex; type: binding; details: holo-LsrB crystal, 1.3 Å resolution
# T1 construct: The final model contains all LsrB residues present in the protein (27-340); GST (N, cleaved yes); made in house; host or cells: E. coli BL21
# From the text: Both apo-LsrB and holo-LsrB crystallized by the hanging drop method in 0.1 M Tris-HCl (pH 8.5), 22%-25% PEG 4000 (w/v) in space group P212121. The apo-LsrB crystals initially obtained (a=38.0, b=74.0, c=116.2) were used to seed crystallization in 0.1 M Tris-HCl, pH 8.5, 18%-24% PEG 4000. Crystals were cryoprotected by brief soaks in 0.1 M Tris-HCl, pH 8.5, 20% PEG 4000, 16% (v/v) glycerol and flash frozen in liquid nitrogen. Native crystals diffracted to 1.9 Å and data were collected at 100 K using an R-AXIS-IV image plate detector mounted on a Rigaku 200HB generator. Selenomethionine LsrB crystals were grown and frozen in the same conditions as native crystals. Selenomethionine crystals diffracted to 2.1 Å resolution at NSLS beam line X25, where MAD data were collected using an ADSC Q315 CCD detector. Holo-LsrB crystals (a=37.8, b=76.6, c=109.7) were prepared by addition of approximately 0.25 mM in vitro LuxS reaction product (Schauder et aL, 2001) to the native LsrB crystallization conditions, giving a DPD:LsrB molar ratio of slightly over 1:1. […]
# To identify the LsrB ligand, LsrB was crystallized in the presence of DPD and the other products generated by incubating SAH with recombinant Pfs and LuxS enzymes as previously described (Schauder et al., 2001) (FIG. 1A). The structure was determined by molecular replacement and refined to 1.3 Å resolution (Table 1). […]
# V. harveyi [2] = details: cited from earlier work
# [3] = test system: V. harveyi strain MM32 (LuxN−, LuxS−); type: cell-based; details: for light production: ligand approximately 0.2 nM, 8 hr of growth
# Description: (§1) V. harveyi strain MM32 (luxN::Cm, luxS::Tn5Kan) was used for bioluminescence assays. This strain was constructed by introducing luxS::Tn5Kan onto the chromosome of strain JAF305 (luxN::Cm) (Bassler et al., 1993; Freeman et al., 1999). S. typhimurium strain MET844 (rpsL, putRA::Kan-lsr-lacZYA, ΔlsrFGE::Cm, luxS::TPOP) was used for lsr-lacZ assays (Taga et al., 2003). V. harveyi was grown in borate-depleted autoinducer bioassay (AB) medium (Greenberg et al., 1979), and S. typhimurium was grown in borate-depleted Luria-Bertani (LB) medium. To remove borate, the media were filtered through a borate anion-specific resin, Amberlite IRA743 (Sigma-Aldrich). Specifically, 500 ml of medium was passed three times through 30 ml of resin and the column was regenerated between each passage according to a method described previously (Bennett et al., 1999). Following filtration, the pH of the medium was adjusted using KOH made with borate-depleted water. For all experiments involving borate-depleted reagents, only plastic supplies were used. To test the effect of boron on the bioluminescence and lsr-lacZ assays, boric acid was added to the borate-depleted media to a final concentration of 5 mM.
# V. harveyi MM32 was grown 14 hr in borate-depleted AB at 30° C. with aeration and subsequently diluted 1:5,000 into fresh borate-depleted AB medium in the presence or absence of 5 mM boric acid. 10% autoinducer samples (v/v) were added to the diluted cells and light production was measured hourly in a Wallac Model 1450 Microbeta Plus liquid scintillation counter. […] Bioluminescence is reported as the light produced by the cells divided by the background obtained in medium alone.
# (§2) Ligands were released from LsrB and LuxP as described above. All ligand concentrations were estimated by ^11B-NMR in NMR buffer supplemented with 5 mM boric acid; the area of the boric acid peak served as an internal concentration standard.
# To directly examine the influence of borate on AI-2-dependent signaling in V. harveyi and S. typhimurium, borate-depleted medium was prepared. AI-2 responses (bioluminescence in V. harveyi, lsr operon induction in S. typhimurium) were measured both with and without added boric acid. In this experiment, V. harveyi strain, MM32 was used because this strain lacks the LuxS enzyme needed to biosynthesize DPD and thus produces no endogenous AI-2 signal. This strain also has the AI-1 pathway inactivated. Bioluminescence was measured following addition of enzymatically synthesized DPD or, alternatively, ligand released from either LsrB or LuxP.
# [4] = test system: lsr operon in S. typhimurium strain MET844 (LuxS−); test: S. typhimurium AI-2 bioassay (lsr-lacZ, β-galactosidase activity, strain MET844); type: cell-based; details: for lsr expression (β-galactosidase activity): borate-depleted LB medium, 4 hr, approximately 10 μM DPD and LsrB ligand, 4 μM LuxP ligand
# Description: as §1
# AI-2-dependent induction of the lsr operon in S. typhimurium was measured by determining the β-galactosidase activity of the lsr-lacZ promoter fusion in S. typhimurium strain MET844. Overnight cultures were grown in borate-depleted LB medium at 37° C. with aeration and were diluted 1:100 into fresh borate-depleted LB medium in the presence or absence of 5 mM boric acid. To the diluted cells (900 μl), 10% (v/v) autoinducer samples were added (100 μl), and cells were grown for 4 hr. Cell lysates were prepared and β-galactosidase activity was measured as described previously (Taga et al., 2003). β-galactosidase units are defined as [(OD420 min^−1×dilution factor)/OD600].
# as §2
# V. harveyi receptor LuxP = V. harveyi receptor LuxP (Vibrio harveyi, UniProt P54300); details: Chen et al., 2002; cited from earlier work
# V. harveyi [5] = details: presence or absence of 5 mM boric acid; AB medium
# Description: as §1
# S. typhimurium = test system: S. typhimurium
# Description: as §1
# [6] = borate-depleted AB medium plus 5 mM boric acid
# [7] = 5 mM boric acid added to borate-depleted medium
# V. harveyi receptor LuxP, sequence (P54300 24-365): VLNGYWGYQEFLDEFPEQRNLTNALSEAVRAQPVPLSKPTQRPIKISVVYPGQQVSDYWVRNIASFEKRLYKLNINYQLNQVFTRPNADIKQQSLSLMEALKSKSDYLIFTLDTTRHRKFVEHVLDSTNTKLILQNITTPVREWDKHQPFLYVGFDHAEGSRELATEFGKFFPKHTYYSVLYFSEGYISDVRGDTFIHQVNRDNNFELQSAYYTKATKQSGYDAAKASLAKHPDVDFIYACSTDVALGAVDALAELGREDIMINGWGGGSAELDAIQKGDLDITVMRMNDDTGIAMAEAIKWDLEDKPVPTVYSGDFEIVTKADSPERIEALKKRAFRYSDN
structure (smiles),measurement,setting,value
"C[C@@]1(O)OC[C@H](O)C1(O)O [R-THMF, (2R,4S)-2-methyl-2,3,3,4-tetrahydroxytetrahydrofuran]",binding to LsrB,[1],binds
N[C@@H](CCS)C(=O)O [homocysteine],autoinducer activity,V. harveyi [2]; product of the LuxS reaction,no autoinducer activity
"CC(=O)C(=O)C(O)CO (centres unmarked) [DPD, 4,5-dihydroxy-2,3-pentanedione]",bioluminescence in V. harveyi,"V. harveyi [2]; chemically synthesized DPD, only in the presence of boric acid (Meijler et al., 2004)",induces bioluminescence
same,light production,[3]; [6],stimulate light production
same,light production,[3]; borate-depleted AB medium,No light was produced
same,DPD final concentration inducing a linear response in light production,"[3]; in the presence of 5 mM borate, 6-8 hr incubation",0.1 to 1 nM
same,lsr expression (β-galactosidase activity),[4],induces lsr expression
C[C@]12OC[C@H](O)[C@@]1(O)O[B-](O)(O)O2 [LuxP ligand],light production,[3]; borate-depleted AB medium,failed to stimulate light production
same,lsr expression (β-galactosidase activity),[4],induces lsr expression
"CC12OCC(O)C1(O)O[B-](O)(O)O2 [S-THMF-borate, α-L-glycero-1-dehydro-3-hydro-penta-2,3-diulo-2,5-furanosyl-2,3-cyclic borate]",binding to LuxP,V. harveyi receptor LuxP,binds
C[C@@]1(O)OC[C@H](O)C1(O)O [LsrB ligand],light production,[3]; [6],stimulate light production
same,light production,[3]; borate-depleted AB medium,No light was produced
same,lsr expression (β-galactosidase activity),[4],induces lsr expression
OB(O)O [boric acid],effect on growth,V. harveyi [5],no effect
same,effect on growth,S. typhimurium,no effect
same,effect of boric acid on the ability of DPD or either receptor's ligand to activate the V. harveyi assay,[3]; [7],strongly enhances
same,effect of boric acid on the ability of DPD or either receptor's ligand to activate the S. typhimurium assay,[4]; [7],inhibits

# — patent US7547726B2, “AI-2 compounds and analogs based on Salmonella typhimurium LsrB structure” (The Trustees of Princeton University, priority 2004, dated 2009)
